Test results: patent US10973807B2, “Pharmaceutical composition comprising pyrrolo-fused six-membered heterocyclic compound” (Jiangsu Hengrui Medicine Co., Ltd., priority 2016, dated 2021)

What was measured:
[1] = Water solubility; format: physicochemical; settings: compound or a pharmaceutically acceptable salt thereof
[2] = Stability in the presence of moisture; format: physicochemical; settings: compound or a pharmaceutically acceptable salt thereof

water solubility [1]: poor
stability in the presence of moisture [2]: unstable
SMILES: CCN(CC)CCN1CCc2[nH]c(/C=C3\C(=O)Nc4ccc(F)cc43)c(C)c2C1=O.O=C(O)C[C@H](O)C(=O)O [compound of formula (I), 5-(2-diethylamino-ethyl)-2-(5-fluoro-2-oxo-1,2-dihydro-indol-3-ylidene-methyl)-3-methyl-1,5,6,7-tetrahydro-pyrrolo[3,2-c]pyridin-4-one]
